# Patent publication US10806794B2, “Protease inhibitors having enhanced features” (priority 2008, dated 2020)
# Where two headings read alike, the source gives them in different places.
# Columns and labels:
# [1] = Plasma protein binding by equilibrium dialysis, human plasma; assay type: in vitro ADME; settings: human, plasma
# Experimental: (§1) In assays to estimate binding of test compounds to plasma proteins, test compound solutions (5 μM) are prepared in buffer and species-specific plasma (final DMSO concentration 0.5%). The plasma-containing solution is added to one side of the membrane of an equilibrium dialysis system, and the plasma-free is added to the other side. Dialysis was allowed to reach equilibrium by incubation for two hours at 37° C. The concentration of compound on both sides of the membrane was measured using LC-MS/MS.
# HIV-1 HT/92/599 = assay: HIV-1 reverse transcriptase activity after infection of fresh human PBMCs; assay type: cell-based; settings: read-out: PBMC/HIV-1HT/92/599 EC50 ± SD; seven days, reverse transcriptase activity
# Experimental: Fresh human peripheral blood mononuclear cells (PBMCs) obtained from a commercial source were purified following centrifugation using a Ficoll-Hypaque density gradient. Viable cells were induced to proliferate in the presence of PHA-P and recombinant human IL-2 for 72 hours. […] Cell supernatant containing HIV-1 viral was incubated for 90 minutes at 37° C. with a reaction mixture containing EGTA, Triton X-100, Tris (pH 7.4), DTT, MgCl2, poly rA, oligo dT, and tritiated thymidine triphosphate (TTP). Incorporation of TTP into DNA was monitored by spotting the reaction mixture onto a DEAE filter mat, followed by washes with 5% phosphate buffer, distilled water, and 70% ethanol, and subsequent drying of the mat. Radioactivity was measured using a Wallac 1450 Microbeta Trilux liquid scintillation counter using Opti-Fluor O. Test compound-associated toxicity was measured in PBMCs cultured for seven days in the absence of virus using XTT reagent. […] TI was calculated as TC50/EC50.
# HIV-1RF [2] = assay: Pre-exposure assay: CEM-SS cells treated before HIV-1RF infection, cell viability; assay type: cell-based; settings: Human immunodeficiency virus 1, CEM-SS
# Experimental: (§2) The effects of pre- and post-infection PI treatment on CEM-SS toxicity were assessed. […] Cell toxicity was monitored six days after infection using XTT reagent. In the post-exposure assay, test compounds were added to cells 0, 24, 48, or 72 h after HIV-1 infection, and cell viability was measured six days post-infection.
# HIV-1BaL = assay: HIV-1 p24 levels after infection of fresh human monocyte/macrophages; assay type: cell-based; settings: Human immunodeficiency virus 1, Monocyte, 168 h, read-out: Monocyte/HIV-1BaL EC50, seven days, p24
# Experimental: Mononuclear cells were isolated from fresh human peripheral blood cells by Ficoll-Hypaque density gradient by centrifugation at 600 g for 30 minutes. Banded peripheral blood mononuclear cells (PBMCs) were aspirated from the resulting interface and washed with phosphate buffered saline by low speed centrifugation. […] Cells were allowed to attach for 2 to 12 h at 37° C., then washed with Dulbecco's phosphate buffered saline (DPBS). Monocyte-macrophage monolayer formation was induced by incubation in growth medium (RPMI 1640 medium supplemented with 10% fetal bovine serum, 2 mmol/L L-glutamine, 100 Units/mL penicllin and 10 μg/mL streptomycin) for 7 days. Residual PBMCs were removed by washing the cell monolayers with DPBS. After washing, test compound diluted in growth medium was added to cells. Immediately following test compound addition, HIV-1 virus was added to the cells at multiplicity of infection (MOI)=0.05-0.10. After 7 days in culture, HIV-1 replication was quantified by ELISA measurement of cell-free HIV-1 viral capsid protein (p24) in the tissue culture supernatant of treated monocyte-macrophage monolayers. ELISA to quantify p24 was performed according to manufacturer's instructions (Perkin Elmer, Waltham, Mass.). The quantity of free HIV-1 p24 antigen in the sample was determined by comparing its absorbance at 490 nm to that of control standards.
# (§3) Fresh human monocytes were infected with the BaL strain of HIV-1 in the presence of test compounds. After seven days in culture, HIV-1 replication was evaluated by measurement of HIV-1 viral capsid protein (p24) in the tissue culture supernatant (Table 7). […] A TI was calculated as described above using TC50 values derived from cell toxicity data in response to test compounds in the absence of viral infection.
# CEM-SS cells = assay: Post-exposure assay: toxicity in CEM-SS cells; settings: human
# Experimental: as §2
# HIV-1RF [3] = assay: p24 levels after single high MOI HIV-1RF infection of CEM-SS cells, time of addition; assay type: cell-based
# Experimental: The cytoprotective effect against HIV of the PEG-protease inhibitor conjugates was evaluated during a single round of high multiplicity of infection (“MOI”) HIV-1 infection in CEM-SS cells. CEM-SS cells were incubated for one hour with a single high MOI dose of HIV-1RF. Cells were washed to remove free virus, then test compounds were added to cells at 0, 2, 4, 6, 8, 16, or 24 hours after HIV-1 infection. To monitor viral replication, cell supernatants were analyzed at 30 hours post-infection for levels of the HIV capsid protein p24 (FIG. 1). […] Nevirapine inhibited viral replication at 1 μM when added to cells up to four hours post-infection, and at 10 μM when added up to eight hours post-infection.
# HIV-1RF [4] = assay: Post-exposure assay: compounds added after HIV-1 infection of CEM-SS cells, cell viability; assay type: cell-based; settings: Human immunodeficiency virus 1, CEM-SS
# Experimental: as §2
# HIV-1 virions = assay: Infectivity of HIV-1 virions from treated cells on naive CEM-SS cells; assay type: cell-based
# Experimental: In concert with p24 analysis, cell supernatants collected from cells exposed to test compounds at 8, 16, or 24 hours post-infection were used to infect naïve CEM-SS cells. Cell viability was measured six days post-infection as a measure of virus infectivity (Table 5).
# human monocytes = assay: Toxicity in human monocytes in the absence of viral infection; settings: human
# Experimental: as §3
# human hepatocytes = assay: Metabolic stability in cryopreserved human hepatocytes; settings: human hepatocytes
# Experimental: Metabolism of PI conjugates was investigated by monitoring the levels of unmetabolized parent compound following incubation with cryopreserved human or monkey hepatocytes. The use of whole hepatocytes rather than microsomes requires that the drugs cross the cell membrane to interact with intracellularly-localized metabolic enzymes, and thus provides the most relevant in vitro system for understanding overall metabolic stability of these compounds.
# Test compounds (0.1 μM or 3 μM, as indicated) are incubated with cryopreserved human hepatocytes at a cell density of 0.5×10^6 viable cells/mL. […] Duplicate samples (50 μL) are removed from the incubation mixture at various timepoints up to four hours (for 0.1 μM test compound concentration), or one or two hours (for 3 μM test compound concentration), and the reaction is quenched by the addition of methanol containing internal standard (100 μL). The samples are centrifuged (2500 rpm at 4° C. for 20 min), and the supernatants at each time point pooled for cassette analysis by LC-MS/MS.
# CYP3A4 [5] = target: T1, CYP3A4 (Homo sapiens (Human), UniProt P08684); assay: CYP450 inhibition in human liver microsomes: CYP3A4;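 also: incubation at 37 °C started by adding 1 mM NADPH, with formation of the probe metabolite measured via LC-MS/MS or fluorescent detection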
# human plasma proteins = assay: Plasma protein binding by equilibrium dialysis, human plasma; assay type: in vitro ADME; settings: human plasma, 5 μM, fraction unbound
# Experimental: as §1
# CYP3A4 [6] = target: T1, CYP3A4; assay: Metabolic stability in CYP3A4-expressing Bactosomes; assay type: in vitro ADME; settings: 5 μM
# Experimental: (§4) Compounds were evaluated for their propensity to act as substrates of individual human cytochrome P450 enzymes using a bacterial membrane preparation co-expressing human NADPH-cytochrome P450 reductase with either human CYP3A4 or CYP2D6 (Bactosomes™ Cypex, Ltd., Dundee, UK). In vitro metabolism studies using Bactosomes™ expressing individual human CYP isoforms monitor the extent to which a test compound is metabolized by a single CYP450 enzyme and allow identification of the CYP isoforms that may be responsible for the metabolism of a test compound. Timecourse analyses of test molecules (5 μM) with CYP2D6- or CYP3A4-expressing Bactosomes™ (100 pmol/mL) are performed in buffer (0.1 M phosphate, pH 7.4) in a final reaction volume of 25 μL. […] Reactions are terminated by the addition of methanol (50 μL) containing internal standard at 0, 5, 15, 30, and 45 minutes.
# HIV-1RF [7] = assay: Anti-HIV cytoprotection in CEM-SS cells infected with HIV-1RF (XTT); assay type: cell-based; settings: six days, XTT; read-out: CEM-SS/HIV-1RF EC50 ± SD
# Experimental: To evaluate whether conjugated protease inhibitors retain the ability to protect against HIV-1 infection, CEM-SS cells infected with the RF strain of HIV-1 were treated with test compounds for six days, and then cell viability was monitored using the tetrazolium dye XTT. […] A value for Therapeutic Index (TI) was calculated as TC50/EC50.
# CYP2D6 = CYP2D6 (Homo sapiens (Human), UniProt P10635); assay: Metabolic stability in CYP2D6-expressing Bactosomes; assay type: in vitro ADME; settings: 5 μM
# Experimental: as §4
# [8] = tested on: human liver microsomal proteins; assay: Microsomal protein binding by equilibrium dialysis; assay type: in vitro ADME; settings: human liver microsomes, 3 μM, fraction unbound
# Experimental: PEGylated protease inhibitors were evaluated for their propensity to be bound by proteins in normal human plasma or in human liver microsome preparations using equilibrium dialysis analysis. For microsomal protein binding, test compound (final concentration=3 μM) was diluted into either buffer alone or buffer containing human liver microsomes. The protein-free and microsome-containing solutions were then added to either side of an equilibrium dialysis system and allowed to reach equilibrium at 37° C. The concentration of compound on both sides of the membrane at equilibrium was quantified by LC-MS/MS, and the fraction of compound that remains unbound (Fu) is calculated.
# [9] = Metabolic stability in human liver microsomes; settings: human liver microsomes, 3 μM
# Experimental: The human liver microsome-mediated biotransformation of PEG-PI compounds was determined by monitoring the loss of the substrate as a function of time. […] Test compounds (3 μM final concentration) were preincubated with pooled (male and female) human liver microsomes (0.5 mg/mL final protein concentration) in buffer (0.1M phosphate buffer, pH 7.4) at 37° C. Reactions were initiated by the addition of NADPH (1 mM final concentration), and allowed to continue for 0, 5, 15, 30, and 45 minutes. […] Sample supernatants are analyzed by liquid chromatography-tandem mass spectrometry.
# Caco-2 cells = assay: Bi-directional permeability in Caco-2 monolayers; settings: Caco-2 monolayers, apical to basolateral
# Experimental: Absorption properties of various compounds were measured using bi-directional permeability assays in Caco-2 cells. […] The efflux ratio is calculated as the ratio of the Papp(B→A)/Papp(A→B).
# T1 sequence (P08684 whole entry): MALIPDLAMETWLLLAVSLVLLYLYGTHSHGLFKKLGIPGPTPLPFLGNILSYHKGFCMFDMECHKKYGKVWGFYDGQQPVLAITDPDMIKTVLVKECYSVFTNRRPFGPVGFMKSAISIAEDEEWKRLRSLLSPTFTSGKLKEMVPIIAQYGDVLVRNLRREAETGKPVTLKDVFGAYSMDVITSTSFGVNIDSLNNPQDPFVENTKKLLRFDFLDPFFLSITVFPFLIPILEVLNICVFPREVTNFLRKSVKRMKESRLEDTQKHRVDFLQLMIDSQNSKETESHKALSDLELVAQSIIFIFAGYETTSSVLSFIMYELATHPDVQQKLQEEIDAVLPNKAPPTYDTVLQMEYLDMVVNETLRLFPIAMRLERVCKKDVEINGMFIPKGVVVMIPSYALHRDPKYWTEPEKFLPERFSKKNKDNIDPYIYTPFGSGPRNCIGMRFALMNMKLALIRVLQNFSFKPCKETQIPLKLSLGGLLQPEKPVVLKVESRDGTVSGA
# Sequence of CYP2D6 (P10635 whole entry): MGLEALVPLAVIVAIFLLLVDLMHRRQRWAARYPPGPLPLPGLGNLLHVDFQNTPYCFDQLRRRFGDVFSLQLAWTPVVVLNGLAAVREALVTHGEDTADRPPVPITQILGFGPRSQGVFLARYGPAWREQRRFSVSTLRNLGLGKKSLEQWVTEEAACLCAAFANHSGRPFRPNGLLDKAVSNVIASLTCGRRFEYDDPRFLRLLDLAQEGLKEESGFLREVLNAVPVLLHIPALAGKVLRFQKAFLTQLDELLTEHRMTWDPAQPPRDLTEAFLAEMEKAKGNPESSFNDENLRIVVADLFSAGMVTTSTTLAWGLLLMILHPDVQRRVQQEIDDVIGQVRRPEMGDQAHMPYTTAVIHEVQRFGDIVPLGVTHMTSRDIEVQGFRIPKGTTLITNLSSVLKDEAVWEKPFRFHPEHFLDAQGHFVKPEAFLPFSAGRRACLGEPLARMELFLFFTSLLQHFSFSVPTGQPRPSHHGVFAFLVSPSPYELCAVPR
compound,measurement,setting,value
CC(C)(C)NC(=O)[C@@H]1C[C@@H]2CCCC[C@@H]2CN1C[C@@H](O)[C@H](Cc1ccccc1)NC(=O)[C@H](CC(N)=O)NC(=O)c1ccc2ccccc2n1 [Saquinavir],"fraction unbound at 2 h, 5 μM",[1],0.0353 ± 0.00151
same,EC50,HIV-1 HT/92/599,9 nM
same,EC50,HIV-1RF [2]; 2 h,20 nM
same,EC50,HIV-1RF [2]; 8 h,50 nM
same,EC50,HIV-1RF [2]; 24 h,40 nM
same,EC50,HIV-1BaL,40 nM
same,TC50,CEM-SS cells; 3 days,>1000 nM
same,TC50,CEM-SS cells; 4 days,>1000 nM
same,TC50,CEM-SS cells; 5 days,>1000 nM
same,TC50,CEM-SS cells; 6 days,>1000 nM
same,time of addition up to which antiviral activity (reduced p24) was seen,HIV-1RF [3]; 0.1 μM,up to 16 hours post-infection
same,time of addition up to which antiviral activity (reduced p24) was seen,HIV-1RF [3]; 1 μM,up to 24 hours post-infection
same,EC50,HIV-1RF [4]; 0 h,< 3 nM
same,EC50,HIV-1RF [4]; 24 h,4 nM
same,EC50,HIV-1RF [4]; 48 h,5 nM
same,EC50,HIV-1RF [4]; 72 h,10 nM
same,Percent Infectivity of HIV-1 Virions in comparison to virus-alone control,"HIV-1 virions; 0.01 μM, added 8 h post-infection",100.0%
same,Percent Infectivity of HIV-1 Virions in comparison to virus-alone control,"HIV-1 virions; 0.01 μM, added 16 h post-infection",117.0%
same,Percent Infectivity of HIV-1 Virions in comparison to virus-alone control,"HIV-1 virions; 0.01 μM, added 24 h post-infection",404.8%
same,Percent Infectivity of HIV-1 Virions in comparison to virus-alone control,"HIV-1 virions; 0.1 μM, added 8 h post-infection",5.6%
same,Percent Infectivity of HIV-1 Virions in comparison to virus-alone control,"HIV-1 virions; 0.1 μM, added 16 h post-infection",10.0%
same,Percent Infectivity of HIV-1 Virions in comparison to virus-alone control,"HIV-1 virions; 0.1 μM, added 24 h post-infection",128.0%
same,reduction of virion infectivity vs virus-only control,HIV-1 virions; 1 μM at 24 hours post-infection,~90%
same,Percent Infectivity of HIV-1 Virions in comparison to virus-alone control,"HIV-1 virions; 1 μM, added 8 h post-infection",0.1%
same,Percent Infectivity of HIV-1 Virions in comparison to virus-alone control,"HIV-1 virions; 1 μM, added 16 h post-infection",7.8%
same,Percent Infectivity of HIV-1 Virions in comparison to virus-alone control,"HIV-1 virions; 1 μM, added 24 h post-infection",12.8%
same,reduction of virion infectivity vs virus-only control,HIV-1 virions; 0.1 or 1 μM at 8 and 16 hours post-infection,at least 90%
same,TC50,human monocytes,>1000 nM
COCCOCCOCCNc1ccc(S(=O)(=O)N(CC(C)C)CC(O)[C@H](Cc2ccccc2)NC(=O)O[C@H]2CO[C@H]3OCC[C@H]32)cc1 (some centres unmarked) [mPEG3-N-Darunavir],CLint ± SEM,"human hepatocytes; 0.1 uM, up to four hours",48.0 ± 4.75 μL/min/10^6 cells
same,t1/2,"human hepatocytes; 0.1 uM, up to four hours",28.9 min
same,CLint ± SEM,"human hepatocytes; 3 uM, incubated up to one hour",18.2 ± 1.47 μL/min/10^6 cells
same,IC50,"CYP3A4 [5]; read-out: CYP3A4 IC50 Midazolam, probe substrate midazolam",1200 nM
same,IC50,"CYP3A4 [5]; read-out: CYP3A4 IC50 Testosterone, probe substrate testosterone",3100 nM
same,Plasma Protein Binding Fu ± SD,human plasma proteins,0.236 ± 0.0292
same,3A4 t1/2 ± SEM,CYP3A4 [6],66.6 ± 4.88 min
same,EC50,HIV-1RF [7],< 0.7 nM
same,2D6 t1/2 ± SEM,CYP2D6,68.4 ± 18.9 min
same,Microsomal Protein Binding Fu ± SD,[8],0.96 ± 0.0407
same,CLint ± SEM,[9],385 ± 0.718 μL/min/mg protein
same,t1/2,[9],3.60 min
same,"A→B, ×10^−6",Caco-2 cells,2.52 cm/s
